Results as given in patent US9175003B2, “Substituted azoanthracene derivatives and intermediates for preparation thereof” (TransTech Pharma, LLC, priority 2009, dated 2015).

These compounds were tested against human GLP-1 receptor (Homo sapiens (Human), UniProt P43220). Conditions: read-out: Mean EC50; cAMP, HTRF detection, 30 min at 37° C., HEK-293 cells expressing cloned human GLP-1 receptor.
Chain of human GLP-1 receptor (P43220 24-463): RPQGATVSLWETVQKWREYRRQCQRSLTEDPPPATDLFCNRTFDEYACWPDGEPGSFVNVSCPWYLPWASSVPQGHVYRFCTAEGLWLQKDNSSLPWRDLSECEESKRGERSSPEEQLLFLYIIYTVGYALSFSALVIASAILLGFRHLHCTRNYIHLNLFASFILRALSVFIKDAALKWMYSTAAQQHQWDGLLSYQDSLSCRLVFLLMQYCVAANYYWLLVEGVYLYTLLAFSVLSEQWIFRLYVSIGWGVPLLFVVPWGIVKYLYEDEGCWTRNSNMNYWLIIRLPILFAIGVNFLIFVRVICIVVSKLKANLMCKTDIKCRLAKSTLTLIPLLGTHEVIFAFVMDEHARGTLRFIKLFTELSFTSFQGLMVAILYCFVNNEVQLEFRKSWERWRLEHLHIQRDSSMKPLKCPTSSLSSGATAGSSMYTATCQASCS

Point of comparison: `Cc1nc(C(=O)N2Cc3cc4c(cc3C[C@H]2C(=O)N[C@@H](Cc2ccc(-c3ccnc(C)c3C)cc2)C(=O)O)OC[C@H](c2ccc(OCCc3ccc(Cl)cc3)cc2)O4)c(C)o1` [Example 371, (S)-2-{[(3S,8S)-3-{4-[2-(4-Chloro-phenyl)-ethoxy]-phenyl}-7-(2,5-dimethyl-oxazole-4-carbonyl)-2,3,6,7,8,9-hexahydro-[1,4]dioxino[2,3-g]isoquinoline-8-carbonyl]-amino}-3-[4-(2,3-dimethyl-pyridin-4-yl)-phenyl]-propionic acid], EC50 0.036 µM. Against it:
- Cc1nccc(Oc2ccc(C[C@H](NC(=O)[C@@H]3Cc4cc5c(cc4CN3C(=O)NC3(C)CCC3)O[C@@H](c3ccc(OCc4ccc(Cl)c(Cl)c4)cc3)CO5)C(=O)O)cc2)c1C [Example 351, (S)-2-{[(3S,8S)-3-[4-(3,4-Dichloro-benzyloxy)-phenyl]-7-(1-methyl-cyclobutylcarbamoyl)-2,3,6,7,8,9-hexahydro-[1,4]dioxino[2,3-g]isoquinoline-8-carbonyl]-amino}-3-[4-(2,3-dimethyl-pyridin-4-yloxy)-phenyl]-propionic acid] — 3-fold higher, 0.109 µM
- Cc1nccc(Oc2ccc(C[C@H](NC(=O)[C@@H]3Cc4cc5c(cc4CN3C(=O)NC3CCC(F)(F)CC3)O[C@@H](c3ccc(OCc4ccc(Cl)c(Cl)c4)cc3)CO5)C(=O)O)cc2)c1C [Example 352, (S)-2-{[(3S,8S)-3-[4-(3,4-Dichloro-benzyloxy)-phenyl]-7-(4,4-difluoro-cyclohexylcarbamoyl)-2,3,6,7,8,9-hexahydro-[1,4]dioxino[2,3-g]isoquinoline-8-carbonyl]-amino}-3-[4-(2,3-dimethyl-pyridin-4-yloxy)-phenyl]-propionic acid] — 9.4-fold higher, 0.338 µM
- Cc1nc(C(=O)N2Cc3cc4c(cc3C[C@H]2C(=O)N[C@@H](Cc2ccc(-c3ccnc(C)c3C)cc2)C(=O)O)OC[C@H](c2ccc(OCc3c(Cl)cccc3Cl)cc2)O4)c(C)o1 [Example 355, (S)-2-{[(3S,8S)-3-[4-(2,6-Dichloro-benzyloxy)-phenyl]-7-(2,5-dimethyl-oxazole-4-carbonyl)-2,3,6,7,8,9-hexahydro-[1,4]dioxino[2,3-g]isoquinoline-8-carbonyl]-amino}-3-[4-(2,3-dimethyl-pyridin-4-yl)phenyl]-propionic acid] — within 1.5-fold, 0.045 µM
- Cc1nc(C(=O)N2Cc3cc4c(cc3C[C@H]2C(=O)N[C@@H](Cc2ccc(-c3ccnc(C)c3C)cc2)C(=O)O)OC[C@H](c2ccc(OCc3cc(F)ccc3F)cc2)O4)c(C)o1 [Example 356, (S)-2-{[(3S,8S)-3-[4-(2,5-Difluoro-benzyloxy)-phenyl]-7-(2,5-dimethyl-oxazole-4-carbonyl)-2,3,6,7,8,9-hexahydro-[1,4]dioxino[2,3-g]isoquinoline-8-carbonyl]-amino}-3-[4-(2,3-dimethyl-pyridin-4-yl)-phenyl]-propionic acid] — 1.6-fold higher, 0.057 µM
- Cc1nc(C(=O)N2Cc3cc4c(cc3C[C@H]2C(=O)N[C@@H](Cc2ccc(-c3ccnc(C)c3C)cc2)C(=O)O)OC[C@H](c2ccc(OCc3cc(F)cc(F)c3)cc2)O4)c(C)o1 [Example 357, (S)-2-{[(3S,8S)-3-[4-(3,5-Difluoro-benzyloxy)-phenyl]-7-(2,5-dimethyl-oxazole-4-carbonyl)-2,3,6,7,8,9-hexahydro-[1,4]dioxino[2,3-g]isoquinoline-8-carbonyl]-amino}-3-[4-(2,3-dimethyl-pyridin-4-yl)-phenyl]propionic acid] — 1.9-fold lower, 0.019 µM
- Cc1nc(C(=O)N2Cc3cc4c(cc3C[C@H]2C(=O)N[C@@H](Cc2ccc(-c3ccnc(C)c3C)cc2)C(=O)O)OC[C@H](c2ccc(OCc3cccc(Cl)c3F)cc2)O4)c(C)o1 [Example 359, (S)-2-{[(3S,8S)-3-[4-(3-Chloro-2-fluoro-benzyloxy)-phenyl]-7-(2,5-dimethyl-oxazole-4-carbonyl)-2,3,6,7,8,9-hexahydro-[1,4]dioxino[2,3-g]isoquinoline-8-carbonyl]-amino}-3-[4-(2,3-dimethyl-pyridin-4-yl)phenyl]-propionic acid] — 3.3-fold higher, 0.117 µM
- Cc1nc(C(=O)N2Cc3cc4c(cc3C[C@H]2C(=O)N[C@@H](Cc2ccc(-c3ccnc(C)c3C)cc2)C(=O)O)OC[C@H](c2ccc(OCc3c(F)cccc3Cl)cc2)O4)c(C)o1 [Example 360, (S)-2-{[(3S,8S)-3-[4-(2-Chloro-6-fluoro-benzyloxy)-phenyl]-7-(2,5-dimethyl-oxazole-4-carbonyl)-2,3,6,7,8,9-hexahydro-[1,4]dioxino[2,3-g]isoquinoline-8-carbonyl]-amino}-3-[4-(2,3-dimethyl-pyridin-4-yl)phenyl]-propionic acid] — 8.2-fold higher, 0.297 µM
- Cc1nc(C(=O)N2Cc3cc4c(cc3C[C@H]2C(=O)N[C@@H](Cc2ccc(-c3ccnc(C)c3C)cc2)C(=O)O)OC[C@H](c2ccc(OCc3cccc(Cl)c3Cl)cc2)O4)c(C)o1 [Example 361, (S)-2-{[(3S,8S)-3-[4-(2,3-Dichloro-benzyloxy)-phenyl]-7-(2,5-dimethyl-oxazole-4-carbonyl)-2,3,6,7,8,9-hexahydro-[1,4]dioxino[2,3-g]isoquinoline-8-carbonyl]-amino}-3-[4-(2,3-dimethyl-pyridin-4-yl)phenyl]-propionic acid] — 2.5-fold higher, 0.089 µM
- Cc1nc(C(=O)N2Cc3cc4c(cc3C[C@H]2C(=O)N[C@@H](Cc2ccc(-c3ccnc(C)c3C)cc2)C(=O)O)OC[C@H](c2ccc(OCc3cc(Cl)ccc3Cl)cc2)O4)c(C)o1 [Example 362, (S)-2-{[(3S,8S)-3-[4-(2,5-Dichloro-benzyloxy)-phenyl]-7-(2,5-dimethyl-oxazole-4-carbonyl)-2,3,6,7,8,9-hexahydro-[1,4]dioxino[2,3-g]isoquinoline-8-carbonyl]-amino}-3-[4-(2,3-dimethyl-pyridin-4-yl)-phenyl]-propionic acid] — 3-fold lower, 0.012 µM
- Cc1nccc(-c2ccc(C[C@H](NC(=O)[C@@H]3Cc4cc5c(cc4CN3C(=O)N[C@H](C)c3ccccc3)O[C@@H](c3ccc(OCc4cc(F)cc(F)c4)cc3)CO5)C(=O)O)cc2)c1C [Example 365, (S)-2-{[(3S,8S)-3-[4-(3,5-Difluoro-benzyloxy)-phenyl]-7-((R)-1-phenyl-ethylcarbamoyl)-2,3,6,7,8,9-hexahydro-[1,4]dioxino[2,3-g]isoquinoline-8-carbonyl]-amino}-3-[4-(2,3-dimethyl-pyridin-4-yl)-phenyl]-propionic acid] — 2.6-fold higher, 0.095 µM
- Cc1nccc(-c2ccc(C[C@H](NC(=O)[C@@H]3Cc4cc5c(cc4CN3C(=O)N[C@H](C)c3ccccc3)O[C@@H](c3ccc(OCc4cccc(Cl)c4Cl)cc3)CO5)C(=O)O)cc2)c1C [Example 369, (S)-2-{[(3S,8S)-3-[4-(2,3-Dichloro-benzyloxy)-phenyl]-7-((R)-1-phenyl-ethylcarbamoyl)-2,3,6,7,8,9-hexahydro-[1,4]dioxino[2,3-g]isoquinoline-8-carbonyl]-amino}-3-[4-(2,3-dimethyl-pyridin-4-yl)-phenyl]-propionic acid] — 3.1-fold higher, 0.112 µM
- Cc1nccc(-c2ccc(C[C@H](NC(=O)[C@@H]3Cc4cc5c(cc4CN3C(=O)N[C@H](C)c3ccccc3)O[C@@H](c3ccc(OCc4cc(Cl)ccc4Cl)cc3)CO5)C(=O)O)cc2)c1C [Example 370, (S)-2-{[(3S,8S)-3-[4-(2,5-Dichloro-benzyloxy)-phenyl]-7-((R)-1-phenyl-ethylcarbamoyl)-2,3,6,7,8,9-hexahydro-[1,4]dioxino[2,3-g]isoquinoline-8-carbonyl]-amino}-3-[4-(2,3-dimethyl-pyridin-4-yl)-phenyl]-propionic acid] — 1.7-fold higher, 0.062 µM
- Cc1nc(C(=O)N2Cc3cc4c(cc3C[C@H]2C(=O)N[C@@H](Cc2ccc(-c3ccnc(C)c3C)cc2)C(=O)O)OC[C@H](c2ccc(O[C@H]3CC[C@H](C(C)(C)C)CC3)cc2)O4)c(C)o1 [Example 372, (S)-2-{[(3S,8S)-3-[4-(trans-4-tert-Butyl-cyclohexyloxy)-phenyl]-7-(2,5-dimethyl-oxazole-4-carbonyl)-2,3,6,7,8,9-hexahydro-[1,4]dioxino[2,3-g]isoquinoline-8-carbonyl]-amino}-3-[4-(2,3-dimethyl-pyridin-4-yl)-phenyl]-propionic acid] — 1.8-fold higher, 0.064 µM
- CC[C@H]1CC[C@H](Oc2ccc([C@H]3COc4cc5c(cc4O3)CN(C(=O)c3nc(C)oc3C)[C@H](C(=O)N[C@@H](Cc3ccc(-c4ccnc(C)c4C)cc3)C(=O)O)C5)cc2)CC1 [Example 373, (S)-2-({(3S,8S)-7-(2,5-Dimethyl-oxazole-4-carbonyl)-3-[-4-(trans-4-ethyl-cyclohexyloxy)-phenyl]-2,3,6,7,8,9-hexahydro-[1,4]dioxino[2,3-g]isoquinoline-8-carbonyl}-amino)-3-[4-(2,3-dimethyl-pyridin-4-yl)-phenyl]-propionic acid] — 5.2-fold higher, 0.187 µM
- Cc1nc(C(=O)N2Cc3cc4c(cc3C[C@H]2C(=O)N[C@@H](Cc2ccc(-c3ccnc(C)c3C)cc2)C(=O)O)OC[C@H](c2ccc(OC3CCC(Cl)CC3)cc2)O4)c(C)o1 (stereo partly drawn) [Example 375, (S)-2-{[(3S,8S)-3-[4-(4-Chloro-cyclohexyloxy)-phenyl]-7-(2,5-dimethyl-oxazole-4-carbonyl)-2,3,6,7,8,9-hexahydro-[1,4]dioxino[2,3-g]isoquinoline-8-carbonyl]-amino}-3-[4-(2,3-dimethyl-pyridin-4-yl)-phenyl]-propionic acid] — within 1.5-fold, 0.05 µM
- Cc1nc(C(=O)N2Cc3cc4c(cc3C[C@H]2C(=O)N[C@@H](Cc2ccc(-c3ccnc(C)c3C)cc2)C(=O)O)OC[C@H](c2ccc(OCc3cncc(Cl)c3)cc2)O4)c(C)o1 [Example 376, (S)-2-{[(3S,8S)-3-[4-(5-Chloro-pyridin-3-ylmethoxy)-phenyl]-7-(2,5-dimethyl-oxazole-4-carbonyl)-2,3,6,7,8,9-hexahydro-[1,4]dioxino[2,3-g]isoquinoline-8-carbonyl]-amino}-3-[4-(2,3-dimethyl-pyridin-4-yl)-phenyl]-propionic acid] — within 1.5-fold, 0.038 µM
- Cc1nc(C(=O)N2Cc3cc4c(cc3C[C@H]2C(=O)N[C@@H](Cc2ccc(-c3ccnc(C)c3C)cc2)C(=O)O)OC[C@H](c2ccc(OCCc3ccccc3)cc2)O4)c(C)o1 [Example 377, (S)-2-{[(3S,8S)-7-(2,5-Dimethyl-oxazole-4-carbonyl)-3-(4-phenethyloxy-phenyl)-2,3,6,7,8,9-hexahydro-[1,4]dioxino[2,3-g]isoquinoline-8-carbonyl]-amino}-3-[4-(2,3-dimethyl-pyridin-4-yl)-phenyl]-propionic acid] — within 1.5-fold, 0.049 µM
